Test results published in patent US20120245104A1, “NOVEL RETRO-INVERSO LEPTIN PEPTIDE ANTAGONISTS” (priority 2011, published 2012).
Read-outs that look alike come from different tables or passages of the source. Where a SMILES comes first, the peptide text is derived from it. Where no end group is shown, it is not given here. [ ]: non-standard residue; d: D form.

System: MCF-7 cells
Format: cell-based
Text: These peptides were compared to full length LPA-1 with respect to their abilities to inhibit leptin-induced cell growth. […] The same approach was employed with LPA-2 creating […] of the leptin molecule). […] Another LPA-2 scrambled peptide that may be used is […] NO: 3]. […] Retro-inverso peptides are peptides constructed with the reverse sequence and containing all D-amino acids. […] Retro-inverso LPA-1(24-6) sequence […] NO: 31] and retro-inverso LPA-2(89-72) […] NO: 32]. […] Studies were carried out using both MCF-7 and HT-29 cells. […] MCF-7 and HT-29 cells were cultured in DMEM-F12 medium containing 5% fetal bovine serum (FBS), 5 μg/ml insulin, 1% amphopthericin B, 100 μg/ml streptomycin and 100 U/ml penicillin until they were 80% confluent. The cells were washed twice with 100 mM phosphate saline buffer (PBS), pH 7.2 and cultured for additional 2 days in the same medium but without FBS (basal medium). Cells were washed as described before and cultured in basal medium containing the leptin peptides of the present invention or controls as described above.

[1] = Table 1, L-amino acid peptides, cell line not named in Table 1 (same values in Table 2 are for MCF-7), read-out: IC50 values
[2] = Table 2, MCF-7 cells, read-out: IC50 values

Compound	IC50	IC50 [1]	IC50 [2]
CC[C@@H](C)[C@@H](NC(=O)[C@@H](CO)NC(=O)[C@@H](CC(N)=O)NC(=O)[C@@H](CC(=O)O)NC(=O)[C@@H](CC(C)C)NC(=O)[C@@H](CCC(=O)O)NC(=O)[C@@H](CC(N)=O)NC(=O)[C@@H](CC(C)C)NC(=O)[C@@H](CCCNC(=N)N)NC(=O)[C@@H](CC(=O)O)NC(=O)[C@@H](CC(C)C)NC(=O)[C@@H](CC(C)C)NC(=O)[C@@H](Cc1c[nH]cn1)NC(=O)[C@H](N)C(C)C)C(=O)N[C@H](CCC(N)=O)C(=O)N[C@@H](C(=O)N[C@@H](C(=O)N[C@H](CC(N)=O)C(N)=O)C(C)C)[C@H](C)CC [D-D79(1), VHLLDRLNELDNSIQIVN] (H-[dV][dH][dL][dL][dD][dR][dL][dN][dE][dL][dD][dN][dS][dI][dQ][dI][dV][dN]-NH2)	19.4 nM	–	–
CC[C@@H](C)[C@@H](N)C(=O)N[C@H](CC(=O)O)C(=O)N[C@H](CC(N)=O)C(=O)N[C@@H](C(=O)N[C@H](CCCNC(=N)N)C(=O)N[C@@H](C(=O)N[C@@H](C(=O)N[C@@H](C(=O)N[C@@H](C(=O)N[C@H](CCCCN)C(=O)N[C@@H](C(=O)N[C@H](CC(C)C)C(=O)N[C@@H](C(=O)N[C@H](CCCCN)C(=O)N[C@@H](C(=O)N[C@H](CC(=O)O)C(=O)N[C@H](CC(=O)O)C(=O)N[C@H](CCC(N)=O)C(=O)N[C@@H](C(N)=O)C(C)C)[C@H](C)CC)[C@H](C)O)[C@H](C)CC)[C@H](C)O)[C@H](C)CC)C(C)C)[C@H](C)O)[C@H](C)CC [D-I10] (H-[dI][dD][dN][dI][dR][dT][dV][dI][dT][dK][dI][dL][dT][dK][dI][dD][dD][dQ][dV]-NH2)	17.6 nM	–	–
CC[C@@H](C)[C@@H](NC(=O)[C@@H](CC(C)C)NC(=O)[C@@H](CCC(=O)O)NC(=O)[C@@H](CC(N)=O)NC(=O)[C@@H](CC(C)C)NC(=O)[C@@H](CCCNC(=N)N)NC(=O)[C@@H](CC(=O)O)NC(=O)[C@@H](CC(C)C)NC(=O)[C@@H](CC(C)C)NC(=O)[C@@H](Cc1c[nH]cn1)NC(=O)[C@H](N)C(C)C)C(=O)N[C@H](CC(N)=O)C(=O)N[C@H](CO)C(=O)N[C@@H](C(=O)N[C@H](CCC(N)=O)C(=O)N[C@@H](C(=O)N[C@@H](C(=O)N[C@H](CC(N)=O)C(N)=O)C(C)C)[C@H](C)CC)[C@H](C)CC [D-I79] (H-[dV][dH][dL][dL][dD][dR][dL][dN][dE][dL][dI][dN][dS][dI][dQ][dI][dV][dN]-NH2)	9.7 nM	–	–
CC[C@@H](C)[C@@H](N)C(=O)N[C@H](CC(=O)O)C(=O)N[C@H](CC(N)=O)C(=O)N[C@@H](C(=O)N[C@H](CCCNC(=N)N)C(=O)N[C@@H](C(=O)N[C@@H](C(=O)N[C@@H](C(=O)N[C@@H](C(=O)N[C@H](CCCCN)C(=O)N[C@@H](C(=O)N[C@H](CC(C)C)C(=O)N[C@@H](C(=O)N[C@H](CCCCN)C(=O)N[C@H](CC(C)C)C(=O)N[C@H](CC(=O)O)C(=O)N[C@H](CC(=O)O)C(=O)N[C@H](CCC(N)=O)C(=O)N[C@@H](C(N)=O)C(C)C)[C@H](C)O)[C@H](C)CC)[C@H](C)O)[C@H](C)CC)C(C)C)[C@H](C)O)[C@H](C)CC [D-L10] (H-[dI][dD][dN][dI][dR][dT][dV][dI][dT][dK][dI][dL][dT][dK][dL][dD][dD][dQ][dV]-NH2)	11.8 nM	–	–
CC[C@@H](C)[C@@H](NC(=O)[C@@H](CO)NC(=O)[C@@H](CC(N)=O)NC(=O)[C@@H](CC(C)C)NC(=O)[C@@H](CC(C)C)NC(=O)[C@@H](CCC(=O)O)NC(=O)[C@@H](CC(N)=O)NC(=O)[C@@H](CC(C)C)NC(=O)[C@@H](CCCNC(=N)N)NC(=O)[C@@H](CC(=O)O)NC(=O)[C@@H](CC(C)C)NC(=O)[C@@H](CC(C)C)NC(=O)[C@@H](Cc1c[nH]cn1)NC(=O)[C@H](N)C(C)C)C(=O)N[C@H](CCC(N)=O)C(=O)N[C@@H](C(=O)N[C@@H](C(=O)N[C@H](CC(N)=O)C(N)=O)C(C)C)[C@H](C)CC [D-L79] (H-[dV][dH][dL][dL][dD][dR][dL][dN][dE][dL][dL][dN][dS][dI][dQ][dI][dV][dN]-NH2)	18.7 nM	–	–
CC[C@@H](C)[C@@H](N)C(=O)N[C@H](CC(=O)O)C(=O)N[C@H](CC(N)=O)C(=O)N[C@@H](C(=O)N[C@H](CCCNC(=N)N)C(=O)N[C@@H](C(=O)N[C@@H](C(=O)N[C@@H](C(=O)N[C@@H](C(=O)N[C@H](CCCCN)C(=O)N[C@@H](C(=O)N[C@H](CC(C)C)C(=O)N[C@@H](C(=O)N[C@H](CCCCN)C(=O)N[C@@H](C(=O)N[C@H](CC(=O)O)C(=O)N[C@H](CC(=O)O)C(=O)N[C@H](CCC(N)=O)C(=O)N[C@@H](C(N)=O)C(C)C)[C@H](C)O)[C@H](C)O)[C@H](C)CC)[C@H](C)O)[C@H](C)CC)C(C)C)[C@H](C)O)[C@H](C)CC [D-T10(1), IDNIRTVITKILTKTDDQV] (H-[dI][dD][dN][dI][dR][dT][dV][dI][dT][dK][dI][dL][dT][dK][dT][dD][dD][dQ][dV]-NH2)	16.9 nM	–	–
CC[C@@H](C)[C@@H](N)C(=O)N[C@H](CC(=O)O)C(=O)N[C@H](CC(N)=O)C(=O)N[C@@H](C(=O)N[C@H](CCCNC(=N)N)C(=O)N[C@@H](C(=O)N[C@@H](C(=O)N[C@@H](C(=O)N[C@@H](C(=O)N[C@H](CCCCN)C(=O)N[C@@H](C(=O)N[C@H](CC(C)C)C(=O)N[C@@H](C(=O)N[C@H](CCCCN)C(=O)N[C@@H](C(=O)N[C@H](CC(=O)O)C(=O)N[C@H](CC(=O)O)C(=O)N[C@H](CCC(N)=O)C(=O)N[C@@H](C(N)=O)C(C)C)C(C)C)[C@H](C)O)[C@H](C)CC)[C@H](C)O)[C@H](C)CC)C(C)C)[C@H](C)O)[C@H](C)CC [D-V10] (H-[dI][dD][dN][dI][dR][dT][dV][dI][dT][dK][dI][dL][dT][dK][dV][dD][dD][dQ][dV]-NH2)	17.4 nM	–	–
CC[C@@H](C)[C@@H](NC(=O)[C@@H](CO)NC(=O)[C@@H](CC(N)=O)NC(=O)[C@H](NC(=O)[C@@H](CC(C)C)NC(=O)[C@@H](CCC(=O)O)NC(=O)[C@@H](CC(N)=O)NC(=O)[C@@H](CC(C)C)NC(=O)[C@@H](CCCNC(=N)N)NC(=O)[C@@H](CC(=O)O)NC(=O)[C@@H](CC(C)C)NC(=O)[C@@H](CC(C)C)NC(=O)[C@@H](Cc1c[nH]cn1)NC(=O)[C@H](N)C(C)C)C(C)C)C(=O)N[C@H](CCC(N)=O)C(=O)N[C@@H](C(=O)N[C@@H](C(=O)N[C@H](CC(N)=O)C(N)=O)C(C)C)[C@H](C)CC [D-V79] (H-[dV][dH][dL][dL][dD][dR][dL][dN][dE][dL][dV][dN][dS][dI][dQ][dI][dV][dN]-NH2)	13.6 nM	–	–
IQKVQDDTKTLIKTIVTRINDISHTQSVSSKQ-NH2 [Full-length LPA-1 (3-34), reference compound]	–	39.1 nM	39.1 nM
NVIQISNALENLRDLLHV-NH2	54 nM	–	–
NVIQISNDLENLRDLLHV-NH2 [D79 (original amino acid)]	32 nM	–	–
NVIQISNILENLRDLLHV-NH2	16 nM	–	–
NVIQISNLLENLRDLLHV-NH2	16 nM	–	–
NVIQISNVLENLRDLLHV-NH2	15.6 nM	–	–
SRNVIQISNDLENLRDLLHVLAFSKS-NH2 [Full-length LPA-2 (70-95), reference compound]	–	33 nM	33 nM
VQDDAKTLIKTIVTRINDI-NH2	88 nM	–	–
VQDDIKTLIKTIVTRINDI-NH2	21 nM	–	–
VQDDTKTLIKTIVTRINDI-NH2 [T10 (original amino acid)]	25.7 nM	–	–
VQDDVKTLIKTIVTRINDI-NH2	20.7 nM	–	–
